Where two headings read alike, the source gives them in different places.
Biological target: mTOR kinase (purified recombinant mTOR(1360-2549)+GBL) (Homo sapiens, UniProt P42345)
Test: In vitro mTOR kinase assay (TR-FRET)
Type: biochemical
Description: a. In vitro mTOR Kinase Assay
The reaction is stopped by an addition of a Terbium-labeled phospho-specific antibody, e.g., Tb-labeled anti-p4E-BP1 T37/T46, (Invitrogen, product #PR8835A), EDTA, and TR-FRET buffer solution (Invitrogen, Product #PR3756B). Product formation is detected by way of time-resolved fluorescence resonance energy transfer (TR-FRET), which occurs when the phosphorylated substrate and labeled antibody are in close proximity due to phospho-specific binding. Enzymatic activity is measured as an increase in TR-FRET signal using a Perkin Elmer Envision plate reader.
Compound activity is tested in 10 point dose curves starting at the highest final concentration of 10 uM. They are serially diluted in 100% DMSO prior to further dilution with assay buffer. […] 8 μL of solution containing 2 nM Tb-anti-p4E-BP1 antibody & 10 mM EDTA diluted TR-FRET buffer is then added and incubated for 30 minutes to stop the reaction. The plate is scanned with the Envision plate reader. Ki values are calculated in Assay Explorer using the Morrison ATP-competitive tight binding equation for Ki apparent determination.

[1] = class of Ki in the mTOR kinase assay, read-out: mTOR Activity Level
[2] = mTOR kinase assay of Example 496, read-out: Ki

mTOR kinase (purified recombinant mTOR(1360-2549)+GBL), sequence (P42345 1360-2549): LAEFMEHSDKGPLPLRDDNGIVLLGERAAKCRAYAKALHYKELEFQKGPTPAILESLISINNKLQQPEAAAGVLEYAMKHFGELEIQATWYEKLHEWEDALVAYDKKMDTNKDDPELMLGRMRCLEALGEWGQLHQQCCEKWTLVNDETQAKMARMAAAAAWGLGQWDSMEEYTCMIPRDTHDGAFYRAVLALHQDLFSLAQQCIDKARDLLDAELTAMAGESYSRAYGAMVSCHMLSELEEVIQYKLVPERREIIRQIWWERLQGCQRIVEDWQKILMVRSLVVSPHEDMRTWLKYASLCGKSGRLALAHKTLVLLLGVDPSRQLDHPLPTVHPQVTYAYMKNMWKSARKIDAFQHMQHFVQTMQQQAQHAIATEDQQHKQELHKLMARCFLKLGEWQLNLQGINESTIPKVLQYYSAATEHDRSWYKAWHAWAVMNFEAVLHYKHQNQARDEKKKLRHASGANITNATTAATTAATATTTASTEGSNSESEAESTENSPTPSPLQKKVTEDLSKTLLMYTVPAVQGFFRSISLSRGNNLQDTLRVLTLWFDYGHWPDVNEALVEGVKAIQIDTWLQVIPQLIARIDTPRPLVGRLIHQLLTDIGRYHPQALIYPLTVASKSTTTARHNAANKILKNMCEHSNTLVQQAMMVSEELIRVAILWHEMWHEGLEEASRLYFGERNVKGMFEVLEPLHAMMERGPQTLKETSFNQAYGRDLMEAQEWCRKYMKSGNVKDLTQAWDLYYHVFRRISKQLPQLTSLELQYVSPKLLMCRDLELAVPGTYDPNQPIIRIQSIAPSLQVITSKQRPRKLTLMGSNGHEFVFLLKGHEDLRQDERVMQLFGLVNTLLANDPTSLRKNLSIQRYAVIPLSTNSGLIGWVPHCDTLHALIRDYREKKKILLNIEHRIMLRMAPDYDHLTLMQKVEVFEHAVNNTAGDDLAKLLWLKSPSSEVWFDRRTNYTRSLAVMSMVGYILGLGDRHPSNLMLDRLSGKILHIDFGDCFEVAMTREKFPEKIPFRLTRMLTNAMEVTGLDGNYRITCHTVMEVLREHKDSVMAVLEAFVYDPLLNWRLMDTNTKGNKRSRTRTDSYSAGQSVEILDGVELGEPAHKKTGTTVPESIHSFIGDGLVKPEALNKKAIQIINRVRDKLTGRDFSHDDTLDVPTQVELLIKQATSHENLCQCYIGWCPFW
mTOR kinase (purified recombinant mTOR(1360-2549)+GBL), sequence (Q9BVC4 whole entry partner): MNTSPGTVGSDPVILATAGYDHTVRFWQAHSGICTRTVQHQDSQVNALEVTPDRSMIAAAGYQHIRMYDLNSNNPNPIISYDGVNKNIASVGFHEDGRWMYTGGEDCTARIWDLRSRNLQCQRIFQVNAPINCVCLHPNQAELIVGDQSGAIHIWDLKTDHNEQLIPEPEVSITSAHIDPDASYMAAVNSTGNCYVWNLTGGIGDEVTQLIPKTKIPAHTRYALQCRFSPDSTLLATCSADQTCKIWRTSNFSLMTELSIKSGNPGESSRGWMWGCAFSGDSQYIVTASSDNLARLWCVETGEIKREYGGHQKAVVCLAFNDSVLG

| SMILES | Ki [1] [nM] | Ki [2] [nM] |
| --- | --- | --- |
| CC(C)(C)OC(=O)N1Cc2nc(-c3cnc(N)nc3)nc(N3CCOCC3)c2C1 | 100 to 5000 |  |
| COc1ccc(CN2Cc3c(nc(-c4cnc(N)nc4)nc3N3CCOCC3)C2=O)cc1 | 100 to 5000 |  |
| CCNC(=O)Nc1ccc(-c2nc3c(c(N4CCOCC4)n2)CCN(c2ccnc(N)n2)C3)cc1 | < 100 |  |
| CCNC(=O)Nc1ccc(-c2nc3c(c(N4CCOCC4)n2)CN(C(=O)OCc2ccccc2)C3)cc1 | < 100 |  |
| O=C(Nc1ccc(-c2nc3c(c(N4CCOCC4)n2)CCN(c2ncccn2)C3)cc1)NC1CCC1 | < 100 |  |
| CCNC(=O)Nc1ccc(-c2nc3c(c(N4CCOCC4)n2)CN(C(=O)c2ccccc2Cl)CC3)cc1 | < 100 |  |
| CCNC(=O)Nc1ccc(-c2nc3c(c(N4CCOC[C@@H]4C)n2)CCN(C(=O)OC(C)(C)C)C3)cc1 | < 100 |  |
| CCNC(=O)Nc1ccc(-c2nc3c(c(N4CCOCC4)n2)CN(C(=O)c2cccnc2)CC3)cc1 | < 100 |  |
| C[C@H]1COCCN1c1nc(-c2ccc(NC(=O)NCC(F)F)cc2)nc2c1CN(C(=O)c1nccs1)CC2 |  | 32 |
| CCNC(=O)Nc1ccc(-c2nc3c(c(N4CCOC[C@@H]4C)n2)CN(c2ccnc(N)n2)CC3)cc1 | < 100 |  |
| CCNC(=O)Nc1ccc(-c2nc3c(c(N4CCOCC4)n2)CN(C(=O)Cc2ccccc2)CC3)cc1 [drawing 633] |  | 52 |
| CC(C)(C)OC(=O)N1Cc2nc(-c3cnc(N)nc3)nc(C3C=COCC3)c2C1 (stereo not shown) |  | 753 |
| CCNC(=O)Nc1ccc(-c2nc3c(c(N4CCCOCC4)n2)CN(C2CCN(C(C)=O)CC2)C3)cc1 | < 100 |  |
| CCNC(=O)Nc1ccc(-c2nc3c(c(N4CCOCC4)n2)CCN(C(=O)c2cocn2)C3)cc1 | < 100 |  |
| Nc1ccc(-c2nc3c(c(N4CCOCC4)n2)CCN(c2ncccn2)C3)cc1 | 100 to 5000 |  |
| c1cnc(N2CCc3c(nc(-c4ccc5[nH]ncc5c4)nc3N3CCOCC3)C2)nc1 [drawing 628] |  | 636 |
| CCNC(=O)Nc1ccc(-c2nc3c(c(C4=CCOCC4)n2)CCN(c2ncccn2)C3)cc1 | 100 to 5000 |  |
| CCNC(=O)Nc1ccc(-c2nc3c(c(N4CCOCC4)n2)CN(c2ccnc(N)n2)C3)cc1 | < 100 |  |
| CCNC(=O)Nc1ccc(-c2nc3c(c(N4CCOC[C@@H]4C)n2)CNCC3)cc1 | < 100 |  |
| NC(=O)c1ccc(-c2nc3c(c(N4CCOCC4)n2)CN(c2ncccn2)C3)cc1 | 100 to 5000 |  |
| CS(=O)(=O)Nc1ccc(-c2nc3c(c(N4CCOCC4)n2)CN(c2ncccn2)C3)cc1 | 100 to 5000 |  |
| CCNC(=O)Nc1ccc(-c2nc3c(c(N4CCCOCC4)n2)CN(C(=O)OC(C)(C)C)C3)cc1 | < 100 |  |
| O=C(NCC1CC1)Nc1ccc(-c2nc3c(c(N4CCOCC4)n2)CCN(c2ncccn2)C3)cc1 | < 100 |  |
| CCNC(=O)Nc1ccc(-c2nc3c(c(N4CCCOCC4)n2)CCN(C(C)=O)C3)cc1 | < 100 |  |
| CCNC(=O)Nc1ccc(-c2nc3c(c(N4CCOCC4)n2)CNCC3)cc1 | < 100 |  |
| CCNC(=O)Nc1ccc(-c2nc3c(c(N4CCCOCC4)n2)CCN(C(=O)OCc2ccccc2)C3)cc1 | < 100 |  |
| O=C(Nc1ccc(-c2nc3c(c(N4CCOCC4)n2)CN(c2ncccn2)C3)cc1)NC1CCCC1 [drawing 572] | < 100 |  |

| SMILES | Ki [1] [nM] | Ki [2] [nM] |
| --- | --- | --- |
| CCNC(=O)Nc1ccc(-c2nc3c(c(N4CCCOCC4)n2)CN(S(=O)(=O)c2ccccc2)C3)cc1 | < 100 |  |
| CC(=O)Nc1cccc(-c2nc3c(c(N4CCOCC4)n2)CN(c2ncccn2)C3)c1 | 100 to 5000 |  |
| CCNC(=O)Nc1ccc(-c2nc3c(c(N4CCOCC4)n2)CCN(C(=O)OCc2ccccc2)C3)cc1 | < 100 |  |
| CCNC(=O)Nc1ccc(-c2nc3c(c(N4CCCOCC4)n2)CN(C(=O)OCc2ccccc2)C3)cc1 [drawing 625] |  | 2 |
| CCNC(=O)Nc1ccc(-c2nc3c(c(N4CCOCC4)n2)CN(C(=O)OCC)C3)cc1 | < 100 |  |
| Cc1nnc(-c2ccc(-c3nc4c(c(N5CCOCC5)n3)CCN(c3ncccn3)C4)cc2)o1 | 100 to 5000 |  |
| CC(C)NC(=O)Nc1ccc(-c2nc3c(c(N4CCOCC4)n2)CCN(c2ncccn2)C3)cc1 | 100 to 5000 |  |
| CCCNC(=O)Nc1ccc(-c2nc3c(c(N4CCOCC4)n2)CCN(c2ncccn2)C3)cc1 | 100 to 5000 |  |
| c1cnc(N2CCc3c(nc(-c4ccc5[nH]ncc5c4)nc3N3CCOCC3)C2)nc1 [drawing 585] | 100 to 5000 |  |
| CCNC(=O)Nc1ccc(-c2nc3c(c(N4CCOCC4)n2)CCN(c2ncccn2)C3)cc1 | < 100 |  |
| O=C(Nc1ccc(-c2nc3c(c(N4CCOCC4)n2)CN(c2ncccn2)C3)cc1)NC1CCCC1 [drawing 626] |  | 41.2 |
| CCNC(=O)Nc1ccc(-c2nc3c(c(N4CCOCC4)n2)CN(C2CCN(C(C)=O)CC2)C3)cc1 | < 100 |  |
| CCNC(=O)Nc1ccc(-c2nc3c(c(N4CCOCC4)n2)CN(c2ccnc(N)n2)CC3)cc1 | < 100 |  |
| CCNC(=O)Nc1ccc(-c2nc3c(c(N4CCOCC4)n2)CCN(C(=O)c2ccnn2C)C3)cc1 | < 100 |  |
| CCNC(=O)Nc1ccc(-c2nc3c(c(N4CCOCC4)n2)CN(C(=O)c2ccc(Cl)cc2)CC3)cc1 | < 100 |  |
| CCNC(=O)Nc1ccc(-c2nc3c(c(N4CCOCC4)n2)CN(Cc2ccccc2)C3)cc1 | < 100 |  |
| CCNC(=O)Nc1ccc(-c2nc3c(c(N4CCOCC4)n2)CCN(C2CCN(C)CC2)C3)cc1 | < 100 |  |
| CCNC(=O)Nc1ccc(-c2nc3c(c(N4CCOCC4)n2)CCN(C(=O)N2CCOCC2)C3)cc1 | < 100 |  |
| CCNC(=O)Nc1ccc(-c2nc3c(c(N4CCCOCC4)n2)CN(c2ncccn2)C3)cc1 | < 100 |  |
| CCNC(=O)Nc1ccc(-c2nc3c(c(N4CCOCC4)n2)CCN(C(=O)c2cccnc2)C3)cc1 | < 100 |  |
| CCNC(=O)Nc1ccc(-c2nc3c(c(N4CCOCC4)n2)CCN(C(=O)c2ccncc2)C3)cc1 | < 100 |  |
| CCNC(=O)Nc1ccc(-c2nc3c(c(N4CCOCC4)n2)CN(C(=O)Cc2ccccc2)CC3)cc1 [drawing 603] | < 100 |  |
| CCNC(=O)Nc1ccc(-c2nc3c(c(C4CCOCC4)n2)CCN(c2ncccn2)C3)cc1 | 100 to 5000 |  |
| CCNC(=O)Nc1ccc(-c2nc3c(c(N4CCOCC4)n2)CN(C(=O)/C=C/c2ccccc2)CC3)cc1 | < 100 |  |
| CNC(=O)Nc1ccc(-c2nc3c(c(N4CCOCC4)n2)CN(Cc2ccc(OC)cc2)C3=O)cc1 | < 100 |  |
| CCNC(=O)Nc1ccc(-c2nc3c(c(N4CCOCC4)n2)CCN(C(=O)c2ccccn2)C3)cc1 | < 100 |  |
| O=C(NCCO)Nc1ccc(-c2nc3c(c(N4CCOCC4)n2)CCN(c2ncccn2)C3)cc1 | 100 to 5000 |  |

| SMILES | Ki [1] [nM] | Ki [2] [nM] |
| --- | --- | --- |
| CC(=O)Nc1ccc(-c2nc3c(c(N4CCOCC4)n2)CN(c2ncccn2)C3)cc1 | 100 to 5000 |  |
| O=c1[nH]c2ccc(-c3nc4c(c(N5CCOCC5)n3)CCN(c3ncccn3)C4)cc2[nH]1 | 100 to 5000 |  |
| CS(=O)(=O)Nc1ccc(-c2nc3c(c(N4CCOCC4)n2)CN(Cc2ccccc2)C3=O)cc1 | 100 to 5000 |  |
| CCNC(=O)Nc1ccc(-c2nc3c(c(N4CCOCC4)n2)CCN(C(=O)c2c(C)oc4ncn(C)c(=O)c24)C3)cc1 | < 100 |  |
| CCNC(=O)Nc1ccc(-c2nc3c(c(N4CCOCC4)n2)CCN(C(=O)[C@H](C)O)C3)cc1 | < 100 |  |
| CCNC(=O)Nc1ccc(-c2nc3c(c(N4CCCOCC4)n2)CN(C(=O)OCc2ccccc2)C3)cc1 [drawing 567] | < 100 |  |
| CCNC(=O)Nc1ccc(-c2nc3c(c(-c4cccnc4)n2)CCN(Cc2ccccc2)C3)cc1 | 100 to 5000 |  |
| CN(C)C(=O)Nc1ccc(-c2nc3c(c(N4CCOCC4)n2)CN(c2ncccn2)C3)cc1 | 100 to 5000 |  |
| CCNC(=O)Nc1ccc(-c2nc3c(c(N4CCOCC4)n2)CN(C(=O)c2ccccn2)CC3)cc1 | < 100 |  |
| CCNC(=O)Nc1ccc(-c2nc3c(c(N4CCCOCC4)n2)CN(S(C)(=O)=O)C3)cc1 | < 100 |  |
| c1cnc(N2CCc3c(nc(-c4ccc(-n5cccn5)cc4)nc3N3CCOCC3)C2)nc1 | 100 to 5000 |  |
| CCNC(=O)Nc1ccc(-c2nc3c(c(N4CCOC[C@@H]4C)n2)CCN(c2nc(C)cc(C)n2)C3)cc1 |  | 4 |
| CCNC(=O)Nc1ccc(-c2nc3c(c(N4CCOC[C@@H]4C)n2)CCNC3)cc1 | < 100 |  |
| CCNC(=O)Nc1ccc(-c2nc3c(c(N4CCOCC4)n2)CCN2C(=O)N(CC)CC[C@@H]32)cc1 |  | 5 |
| CCNC(=O)Nc1ccc(-c2nc3c(c(N4CCOCC4)n2)CN(Cc2cccc(O)c2)C3)cc1 [drawing 624] |  | 9 |
| CCNC(=O)Nc1ccc(-c2nc3c(c(N4CCOCC4)n2)CN(C(=O)c2ccncc2)CC3)cc1 | < 100 |  |
| CCNC(=O)Nc1ccc(-c2nc3c(c(N4CCOC[C@@H]4C)n2)CCN(c2ccnc(N)n2)C3)cc1 | < 100 |  |
| CCNC(=O)Nc1ccc(-c2nc3c(c(N4CCOCC4)n2)CN(Cc2cccc(O)c2)C3)cc1 [drawing 553] | < 100 |  |
| CC(=O)Nc1ccc(-c2nc3c(c(N4CCOCC4)n2)CN(Cc2ccccc2)C3=O)cc1 | 100 to 5000 |  |
| CCNC(=O)Nc1ccc(-c2nc3c(c(N4CCCOCC4)n2)CCN(c2ncccn2)C3)cc1 | < 100 |  |
| CCNC(=O)Nc1ccc(-c2nc3c(c(C4CCOCC4)n2)CN(C(=O)OC(C)(C)C)C3)cc1 | 100 to 5000 |  |
| O=C(Nc1ccc(-c2nc3c(c(N4CCOCC4)n2)CCN(c2ncccn2)C3)cc1)NC1CC1 | < 100 |  |
| CCNC(=O)Nc1ccc(-c2nc3c(c(N4CCOCC4)n2)CCN(C(=O)c2cnco2)C3)cc1 | < 100 |  |
| CCNC(=O)Nc1ccc(-c2nc3c(c(N4CCOCC4)n2)CN(Cc2ccc(O)cc2)C3)cc1 | < 100 |  |
| CC(=O)Nc1ccc(-c2nc3c(c(N4CCCOCC4)n2)CN(Cc2ccccc2)C3=O)cc1 |  | 252 |
